Where a SMILES comes first, the peptide text is derived from it. [ ]: non-standard residue; d: D form. Phe(4-Br) = N[C@@H](Cc1ccc(Br)cc1)C(=O)O; Nle = CCCC[C@H](N)C(=O)O; Aib = CC(C)(N)C(=O)O
Assays:
NEP = NEP (Homo sapiens, UniProt P08473); experiment: Neprilysin degradation assay (LC-MS, quantitative); details: rhNEP, 37° C., up to 72 h, LC-MS
Procedure: (§1) This experiment compared the in vitro NEP stability of the Arg/Leu peptides of the embodiments to native apelin isoforms and their A2 substituted counterparts. Peptides were incubated with recombinant human NEP (rhNEP, Sino Biological) at 37° C. for up to 72 h, and the extent of degradation was analyzed via LC-MS because of the overlapping elution patterns of peptide fragments. […] (McKinnie, S. M. K., et al. ChemBioChem: 17, 1495-1498 (2016)). […] (Dion, N., et al., Biochem. J.: 311, 623-627 (1995); Bateman Jr., R. C., et al., J. Biol. Chem.: 264, 6151-6157 (1989); McMurray, J. J. et al., J. Med.: 371, 993-1004 (2014)).
(§2) Apelin peptides were dissolved in Milli-Q water (1 mM). Recombinant human neprilysin (rhNEP, Sino Biological) was reconstituted in Tris buffer (100 mM Tris, 100 mM NaCl, 10 μM ZnCl2, pH 7.5). To initiate the assay, rhNEP was diluted in Tris buffer (3.1 nM final concentration), and preincubated at 37° C. for 10 minutes prior to the addition of 5 μL of apelin peptide (1 mM) and 1.5 μL internal standard dansyl-Tyr-Val-Gly-OH (1 mM). Aliquots (10 μL) were removed at 0, 1, 4, 24, and 72 h, quenched with 0.1 M EDTA (10 μL), diluted to 100 μL with Milli-Q water and analyzed by LC-MS. Assays were performed in triplicate (n=3) for each time point. Integrated peak areas of the parent apelin peptide and internal standard derived from LC-MS analyses, were extracted using Mass Hunter software (version B.04.00) and compared in positive extracted ion count modus (+EIC, extracted-ion chromatogram). […] (apelin:dansyl-YVG), to the same ratio at the different assay time points. The decrease in apelin:dansyl-YVG ratio was converted to a percentage of cleaved peptide over time.
(§3) The extent of degradation was analyzed via LC-MS because of the overlapping elution patterns of peptide fragments (NEP).
(§4) Native apelin-17 (2) and apelin peptides 5, 54, 56, 57, 58 and 59 were dissolved in Milli-Q water (1 mM). Recombinant human neprilysin (rhNEP, Sino Biological) was reconstituted in Tris buffer (100 mM Tris, 100 mM NaCl, 10 μM ZnCl2, pH 7.5). To initiate the assay, rhNEP was diluted in Tris buffer (3.1 nM final concentration) and preincubated at 37° C. for 10 min prior to the addition of 5 μL of apelin peptide (1 mM) and 1.5 μL of internal standard dansyl-Tyr-Val-Gly-OH (1 mM). Aliquots (10 μL) were removed at 0, 1, 4, 24, and 72 h, quenched with 0.1 M EDTA (10 μL), diluted to 100 μL with Milli-Q water, and analyzed by LC-MS. Assays were performed in triplicate (n=3) for each time point. Integrated peak areas of the parent apelin peptide and internal standard derived from LC-MS analyses were extracted using Mass Hunter software (version B.04.00) and compared in positive extracted ion count modus (+EIC). The extent of proteolysis was determined by comparing the initial (0 h) ratio of the integrated extracted ions of the parent apelin peptide to the internal dansyl-YVG standard (apelin/dansyl-YVG) to the same ratio at the different assay time points. The decrease in apelin/dansyl-YVG ratio was converted to a percentage of cleaved peptide over time.

[1] = target: Human plasma kallikrein KLKB1 (Homo sapiens, UniProt P03952); experiment: Plasma kallikrein KLKB1 qualitative cleavage assay (MALDI-TOF)
Procedure: Native apelin-17 (2) and apelin peptides 5, 56, 57, 58 and 59 were dissolved in Milli-Q water (1 mM). Human plasma kallikrein KLKB1 were each reconstituted in Tris buffer (100 mM TrisHCl, 10 mM CaCl2), 150 mM NaCl) and diluted with Tris buffer (50 mM TrisHCl, 250 mM NaCl) to give a KLKB1 concentration of […]. The KLKB1 enzyme was then preincubated at 37° C. for 10 minutes prior to the addition of 5 μL of apelin peptide (1 mM). Aliquots (1 μL) were taken at 1, 2, 4, 6, 12, 24, 36, and 48 hours and analyzed with MALDI-TOF mass spectrometry to qualitatively determine the time point at which degradation products could be observed (Table 4).

[2] = target: T1, KLKB1 (plasma kallikrein) (Homo sapiens, UniProt P03952); experiment: In vitro KLKB1 stability (half-life); format: in vitro ADME; details: human
T1 construct: purchased Novoprotein

neprilysin (NEP) = neprilysin (NEP) (Homo sapiens, UniProt P08473); experiment: in vitro; details: human, pH 7.5
Procedure: as §1, §2, §3, §4

KLKB1 = KLKB1 (Homo sapiens, UniProt P03952); experiment: Kinetic parameters for KLKB1 cleavage; format: biochemical; design: purchased Novoprotein; details: enzyme KLKB1
in vitro = details: human, plasma
[3] = tested on: recombinant human neprilysin (rhNEP, Sino Biological); experiment: rhNEP diluted in Tris buffer (100 mM Tris, 100 mM NaCl, 10 μM ZnCl2, pH 7.5), 3.1 nM final concentration; details: 37° C., up to 72 h
[4] = tested on: Angiotensin converting enzyme 2 (ACE2); experiment: in vitro and in vivo; details: cited from earlier work
[5] = tested on: KLKB1 (rhKLKB1, Novoprotein); experiment: Human plasma kallikrein KLKB1 in Tris buffer, KLKB1 concentration of 2 ng/pL; details: 37° C., up to 48 hours

Chain of KLKB1 (P03952 20-638): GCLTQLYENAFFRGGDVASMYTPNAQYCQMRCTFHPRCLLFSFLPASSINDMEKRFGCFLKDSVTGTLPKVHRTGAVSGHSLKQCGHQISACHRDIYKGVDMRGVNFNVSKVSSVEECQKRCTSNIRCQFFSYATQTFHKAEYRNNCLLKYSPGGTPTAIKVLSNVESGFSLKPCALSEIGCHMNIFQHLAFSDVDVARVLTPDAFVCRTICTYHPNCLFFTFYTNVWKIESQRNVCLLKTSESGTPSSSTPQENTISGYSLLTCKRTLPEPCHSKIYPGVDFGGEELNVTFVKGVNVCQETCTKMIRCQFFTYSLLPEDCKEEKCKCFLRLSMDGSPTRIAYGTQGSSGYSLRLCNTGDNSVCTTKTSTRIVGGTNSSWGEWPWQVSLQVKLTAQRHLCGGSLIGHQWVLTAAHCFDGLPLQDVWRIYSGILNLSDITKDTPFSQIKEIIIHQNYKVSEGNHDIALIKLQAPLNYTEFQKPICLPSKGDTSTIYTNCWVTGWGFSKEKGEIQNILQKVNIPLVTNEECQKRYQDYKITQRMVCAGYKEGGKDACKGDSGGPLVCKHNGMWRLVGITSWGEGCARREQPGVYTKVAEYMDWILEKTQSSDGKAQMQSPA
Chain of Human plasma kallikrein KLKB1 (P03952 20-638): as above
T1 sequence (P03952 20-638): as above
Chain of NEP (P08473 whole entry, the tested form may be a part, canonical isoform): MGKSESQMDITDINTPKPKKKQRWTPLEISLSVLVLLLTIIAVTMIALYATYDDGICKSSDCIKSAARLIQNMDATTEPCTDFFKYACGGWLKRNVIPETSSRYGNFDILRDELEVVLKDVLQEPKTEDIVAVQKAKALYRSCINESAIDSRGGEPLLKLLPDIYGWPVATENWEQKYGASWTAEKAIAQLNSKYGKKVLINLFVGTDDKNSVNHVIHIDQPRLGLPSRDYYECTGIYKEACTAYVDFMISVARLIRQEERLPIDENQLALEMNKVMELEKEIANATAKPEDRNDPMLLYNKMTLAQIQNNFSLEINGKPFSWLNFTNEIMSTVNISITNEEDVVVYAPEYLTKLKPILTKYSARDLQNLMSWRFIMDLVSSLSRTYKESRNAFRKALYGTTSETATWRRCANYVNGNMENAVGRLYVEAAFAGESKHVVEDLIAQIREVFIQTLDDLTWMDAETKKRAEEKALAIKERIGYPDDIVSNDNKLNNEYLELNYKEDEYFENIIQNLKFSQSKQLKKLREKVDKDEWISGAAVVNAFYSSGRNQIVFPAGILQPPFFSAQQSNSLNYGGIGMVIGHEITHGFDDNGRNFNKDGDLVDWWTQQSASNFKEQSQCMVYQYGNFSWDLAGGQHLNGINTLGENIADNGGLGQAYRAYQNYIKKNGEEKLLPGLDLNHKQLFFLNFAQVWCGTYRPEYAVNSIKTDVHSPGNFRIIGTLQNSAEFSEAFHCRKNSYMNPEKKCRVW
Chain of neprilysin (NEP) (P08473 whole entry): as the sequence (P08473 whole entry, the tested form may be a part, canonical isoform) above

For `CSCC[C@H](NC(=O)[C@@H]1CCCN1C(=O)CNC(=O)[C@H](CCCCN)NC(=O)[C@H](Cc1cnc[nH]1)NC(=O)[C@H](CO)NC(=O)[C@H](CC(C)C)NC(=O)[C@H](CCCNC(=N)N)NC(=O)[C@@H]1CCCN1C(=O)[C@H](CCCNC(=N)N)NC(=O)[C@@H]1CCC(=O)N1)C(=O)N1CCC[C@H]1C(=O)N[C@@H](Cc1ccccc1)C(=O)O` [Peptide 1, reference compound], the “in vitro NEP proteolytic stability (in words)” value (NEP) was “degraded by NEP at rates comparable to those previously reported”.

In the case of `CCCC[C@H](NC(=O)[C@@H]1CCCN1C(=O)CNC(=O)[C@H](CCCCN)NC(=O)[C@H](Cc1c[nH]cn1)NC(=O)[C@H](CO)NC(=O)[C@H](CC(C)C)NC(=O)[C@H](CCCNC(=N)N)NC(=O)[C@@H]1CCCN1C(=O)[C@H](CCCNC(=N)N)NC(=O)[C@H](CCC(N)=O)NC(=O)[C@H](CCCNC(=N)N)NC(=O)[C@H](CCCNC(=N)N)NC(=O)[C@H](Cc1ccccc1)NC(=O)[C@@H](N)CCCCN)C(=O)NC(C)(C)C(=O)N[C@@H](Cc1ccc(Br)cc1)C(=O)O` [Peptide 5] (H-KFRRQRPRLSHKGP[Nle][Aib][Phe(4-Br)]-OH; C-terminus assumed), the “Degradation Onset Timepoint with KLKB1” value [1] is reported as under 30 min, the half-life [2] is reported as 42 min and the half-life (neprilysin (NEP)) is reported as 60 min. The Km (KLKB1) was 30 ± 4 µM, the “kcat” value (KLKB1) was 1.4 ± 0.2 s⁻¹ and the remaining at 0.5 h, 80 µM (in vitro) was 43 ± 1%. For the same compound, the remaining at 1 h, 80 µM (in vitro) was 35 ± 5%.

In the case of (Pyr)RPRLSHKGPMPF, the not cleaved [3] is given as “C-terminal dipeptide excision was not observed” and the cleaved bond [4] is given as “Pro-Phe”.

For KFRRQRPRLSHKGPMPF, the not cleaved [3] is given as “C-terminal dipeptide excision was not observed”, the cleaved bond [5] is given as “Arg3-Arg4, <30 min” and the cleaved bond [4] is given as “Pro-Phe”.

For LVQPRGSRNGPGPWQGGRRKFRR-QRPRLSHKGPMPF, the cleaved bond [4] is listed as “Pro-Phe”.

With “Lys-Phe-Arg-Arg-Gln-Arg-Pro-Arg-NMeLeu-Ser-His-Lys-Gly-Pro-Nle-Aib-paraBrPhe” the cleaved bond [3] was “Nle15-Aib16, minor” and the cleaved bond [5] was “Arg3-Arg4”.
